Results from ChEMBL document CHEMBL4483862, “Open-source discovery of chemical leads for next-generation chemoprotective antimalarials” (2018).

Test system: Plasmodium berghei
Experiment: Luciferase/luciferin-expressing antifolate-resistant parasites were used to infect a culture of HepG2 cells that were pre-incubated with compounds. Infected hepatocytes emit light due to the luciferase reaction. Assay results are presented as the percent inhibition of light emission compared to control. […]
Type: functional
Conditions: sporozoite; for IC90: read-out: LUCIFERASE INFECTION ASSAY - IC90
[1] = read-out: LUCIFERASE INFECTION ASSAY - IC50

| SMILES | IC90 | IC50 [1] | further results |
| --- | --- | --- | --- |
| NC(Cc1ccc(Cl)cc1)c1csc(Nc2nncc3ccccc23)n1 (stereo not given) | > 8.64 µM |  | IC50 (PBLUC_HILL_SLOPE 1.01, PBLUC_R_SQUARED 0.151, read-out: LUCIFERASE INFECTION ASSAY - IC50): 5.44 µM |
| CC(C)(C)c1ccc(NC(=O)c2sc3nc4c(c(-c5cccnc5)c3c2N)CCC4)cc1 | > 7.46 µM | > 7.46 µM |  |
| Cc1sc2[nH]c(CSCC(=O)c3cc(C)n(-c4ccc(Br)cc4)c3C)nc(=O)c2c1C | > 10 µM |  | IC50 (PBLUC_HILL_SLOPE 3.74, PBLUC_R_SQUARED 0.361, read-out: LUCIFERASE INFECTION ASSAY - IC50): 6.79 µM |
| COc1ccc(-c2cnc3cnc(-c4ccc(CO)cc4)cn23)cc1 | 9.11 µM |  | IC50 (PBLUC_HILL_SLOPE 11.2, PBLUC_R_SQUARED 0.457, read-out: LUCIFERASE INFECTION ASSAY - IC50): 7.48 µM |
| COc1cccc(CN2CCc3c(c(C(=O)NCCCc4ccccc4)nn3Cc3ccncc3)C2)c1 | 5.47 µM |  | IC50 (PBLUC_HILL_SLOPE 4.39, PBLUC_R_SQUARED 0.179, read-out: LUCIFERASE INFECTION ASSAY - IC50): 3.31 µM |
| CCOC(=O)c1ccc(-n2sccc2=O)cc1 | > 13.2 µM | > 13.2 µM |  |
| Cc1ccc(-c2nc(C(=O)NCCCN(C)C)cc3c2[nH]c2ccccc23)cc1 | > 8.54 µM | > 8.54 µM |  |
| O=C(CCSc1nc(NC2CC2)c2ccccc2n1)N1CCc2ccccc21 | 7.86 µM | 3.46 µM |  |
| O=C1C2=C(Nc3ccccc3SC2c2ccccc2F)c2ccccc21 (stereo not given) | 2.61 µM |  | IC50 (PBLUC_HILL_SLOPE 1.25, PBLUC_R_SQUARED 0.725, read-out: LUCIFERASE INFECTION ASSAY - IC50): 0.454 µM |
| COc1ccc(/C=C/C#N)c(Cl)c1OC | > 14.8 µM |  | IC50 (HEPG2TOX_HILL_SLOPE 1.17, HEPG2TOX_R_SQUARED 0.985, PBLUC_HILL_SLOPE 2.95, PBLUC_R_SQUARED 0.12, read-out: LUCIFERASE INFECTION ASSAY - IC50): 11.3 µM |
| Cc1nn(C)c(C)c1NC(=O)C(C)Sc1nnc(Nc2ccc(Oc3ccccc3)cc2)s1 (stereo not given) | > 10 µM |  | IC50 (PBLUC_HILL_SLOPE 13, PBLUC_R_SQUARED 0.117, read-out: LUCIFERASE INFECTION ASSAY - IC50): 8.97 µM |
| N#Cc1ccc(NC(=O)C2CC2(Cl)Cl)cc1 (stereo not given) | > 10 µM | > 10 µM |  |
| C=CCn1c(C)cc(C(=O)CSc2nc3ccccc3o2)c1C | 0.129 µM |  | IC50 (HEPG2TOX_HILL_SLOPE 2.02, HEPG2TOX_R_SQUARED 0.572, PBLUC_HILL_SLOPE 43.7, PBLUC_R_SQUARED 0.493, read-out: LUCIFERASE INFECTION ASSAY - IC50): 0.123 µM |
| O=C(Nc1cccc(C(F)(F)F)c1)n1ncc(Sc2ccc(Cl)cc2)c1-c1ccc(Cl)cc1 | 4.72 µM |  | IC50 (HEPG2TOX_HILL_SLOPE 15.8, HEPG2TOX_R_SQUARED 0.635, PBLUC_HILL_SLOPE 5.24, PBLUC_R_SQUARED 0.621, read-out: LUCIFERASE INFECTION ASSAY - IC50): 3.11 µM |
| Fc1ccc(CNc2ccc(-c3nc4ccccc4[nH]3)cc2)cc1 | > 10.4 µM |  | IC50 (PBLUC_HILL_SLOPE 15.3, PBLUC_R_SQUARED 0.322, read-out: LUCIFERASE INFECTION ASSAY - IC50): 9.03 µM |
| CC(=O)c1cccc(-c2ccc3ncc(-c4ccoc4)n3n2)c1 | > 10 µM | > 10 µM |  |
| COc1ccc(N2C(=O)/C(=C\NC3CCCCC3C)c3ccccc3C2=O)cc1OC (stereo not given) | > 10 µM | > 10 µM |  |
| CCOc1ccc(-c2nc(CSC(C)C(=O)Nc3c(Cl)cccc3Cl)cs2)cc1 (stereo not given) | > 10 µM | > 10 µM |  |
| COc1ccc(CNC(=O)CCOc2ccc(C(C)(C)C)cc2)cc1OC | > 10 µM |  | IC50 (HEPG2TOX_HILL_SLOPE 0.891, HEPG2TOX_R_SQUARED 0.4, PBLUC_HILL_SLOPE 0.658, PBLUC_R_SQUARED 0.48, read-out: LUCIFERASE INFECTION ASSAY - IC50): 4.6 µM |
| CN1/C(=C\C(=O)COC(=O)/C=C/c2cn(-c3ccccc3)nc2-c2ccc(F)cc2)C(C)(C)c2ccccc21 | > 10 µM |  | IC50 (FFLUC_HILL_SLOPE 1.67, FFLUC_R_SQUARED 0.511, PBLUC_HILL_SLOPE 9.36, PBLUC_R_SQUARED 0.0694, read-out: LUCIFERASE INFECTION ASSAY - IC50): 9.4 µM |

| SMILES | IC90 | IC50 [1] | further results |
| --- | --- | --- | --- |
| CCNC(=O)Cn1c(=O)/c(=C\c2ccccc2Cl)s/c1=C\C(=O)c1ccccc1C | > 10 µM | > 10 µM |  |
| CC1CCCCC1NC(=O)/C(C#N)=C/c1ccc(OC(F)F)cc1OC(F)F (stereo not given) | > 10 µM | > 10 µM |  |
| COc1ccc(NS(=O)(=O)c2ccc3oc(Nc4cc(C)on4)nc3c2)cc1 | 9.75 µM |  | IC50 (HEPG2TOX_HILL_SLOPE 5.63, HEPG2TOX_R_SQUARED 0.393, PBLUC_HILL_SLOPE 4.89, PBLUC_R_SQUARED 0.566, read-out: LUCIFERASE INFECTION ASSAY - IC50): 6.22 µM |
| CC(=O)Nc1cccc(-c2cn3c(-c4ccc(Cl)cc4)cnc3cn2)c1 | 3.69 µM |  | IC50 (PBLUC_HILL_SLOPE 3.14, PBLUC_R_SQUARED 0.81, read-out: LUCIFERASE INFECTION ASSAY - IC50): 1.83 µM |
| CCC1CCCCN1C(=O)COC(=O)c1cc(C(C)(C)C)cc(C(C)(C)C)c1 (stereo not given) | > 10 µM | > 10 µM |  |
| O=C(NCCO)c1cccc(-c2ccc3ncc(-c4cccc(O)c4)n3n2)c1 | 9.64 µM |  | IC50 (HEPG2TOX_HILL_SLOPE 14.1, HEPG2TOX_R_SQUARED 0.658, PBLUC_HILL_SLOPE 25.2, PBLUC_R_SQUARED 0.24, read-out: LUCIFERASE INFECTION ASSAY - IC50): 8.83 µM |
| CN(C)c1ccc(/C=N/NC(=O)c2ccccc2N)c(Cl)c1 | > 10.4 µM | > 10.4 µM |  |
| CCC(C)CNc1cc(C(=O)Nc2cccc(OC)c2)cc(S(=O)(=O)N2CCCC2)c1 (stereo not given) | > 7.41 µM |  | IC50 (HEPG2TOX_HILL_SLOPE 12.2, HEPG2TOX_R_SQUARED 0.774, PBLUC_HILL_SLOPE 2.54, PBLUC_R_SQUARED 0.165, read-out: LUCIFERASE INFECTION ASSAY - IC50): 5.57 µM |
| CC(=O)N1CCc2cc(NC(=O)CNc3ccc(C)cc3C)ccc21 | > 10 µM | > 10 µM |  |
| CCN(CC)CCCNS(=O)(=O)c1c(C)n[nH]c1C | > 10 µM |  | IC50 (PBLUC_HILL_SLOPE 10.1, PBLUC_R_SQUARED 0.0336, read-out: LUCIFERASE INFECTION ASSAY - IC50): > 10 µM |
| CN(CC(=O)Nc1ccc(OC(F)(F)F)cc1)Cc1cc([N+](=O)[O-])ccc1O | 3.33 µM |  | IC50 (HEPG2TOX_HILL_SLOPE 2.38, HEPG2TOX_R_SQUARED 0.828, PBLUC_HILL_SLOPE 9.41, PBLUC_R_SQUARED 0.824, read-out: LUCIFERASE INFECTION ASSAY - IC50): 2.64 µM |
| N#CCCn1cc(/C=C(\C#N)c2nc3ccccc3[nH]2)c(-c2ccccc2)n1 | > 10 µM | > 10 µM |  |
| O=S(=O)(c1ccc2oc(Nc3ccc(-c4nc5ccccc5[nH]4)cc3)nc2c1)N1CCOCC1 | 3.62 µM |  | IC50 (HEPG2TOX_HILL_SLOPE 1.96, HEPG2TOX_R_SQUARED 0.85, PBLUC_HILL_SLOPE 1.98, 8.82, PBLUC_R_SQUARED 0.398, 0.470, read-out: LUCIFERASE INFECTION ASSAY - IC50): 1.54 µM |
| CN(C)c1nn(C(=S)Nc2cccc(C(F)(F)F)c2)cc1-c1ccccc1 | > 8.45 µM | > 8.45 µM |  |
| O=C(NCCOc1cccc(Oc2ccccc2)c1)c1cccs1 | > 9.72 µM |  | IC50 (HEPG2TOX_HILL_SLOPE 9.69, HEPG2TOX_R_SQUARED 0.418, PBLUC_HILL_SLOPE 2.28, PBLUC_R_SQUARED 0.595, read-out: LUCIFERASE INFECTION ASSAY - IC50): 4.13 µM |
| COc1cccc(/C=C/c2nnc(O)c(C#N)c2C)c1 | 6.75 µM |  | IC50 (HEPG2TOX_HILL_SLOPE 3.05, HEPG2TOX_R_SQUARED 0.959, PBLUC_HILL_SLOPE 3.8, PBLUC_R_SQUARED 0.551, read-out: LUCIFERASE INFECTION ASSAY - IC50): 3.79 µM |
| COC(=O)C(C(=O)CSc1nnc(-c2ccc(C(C)(C)C)cc2)n1C)=C1Nc2ccccc2N1 | > 10 µM | > 10 µM |  |
| Cc1ccc(-n2c(SCC(=O)NC34CC5CC(CC(C5)C3)C4)nnc2-c2ccccc2)cc1C | > 10 µM |  | IC50 (FFLUC_HILL_SLOPE 8.79, FFLUC_R_SQUARED 0.279, read-out: LUCIFERASE INFECTION ASSAY - IC50): > 10 µM |
| CC(C)C(C)CCC(C)C1CC=C2C3CCC4CC(O)CCC4(C)C3CCC21C (stereo not given) | 0.344 µM |  | IC50 (HEPG2TOX_HILL_SLOPE 17.3, HEPG2TOX_R_SQUARED 0.943, PBLUC_HILL_SLOPE 11.3, PBLUC_R_SQUARED 0.846, read-out: LUCIFERASE INFECTION ASSAY - IC50): 0.284 µM |
| NC(=O)c1ccc(-c2cc(-c3ccc(F)cc3)cnc2N)cc1 | 2.33 µM |  | IC50 (HEPG2TOX_HILL_SLOPE 8.28, HEPG2TOX_R_SQUARED 0.58, PBLUC_HILL_SLOPE 436, PBLUC_R_SQUARED 0.522, read-out: LUCIFERASE INFECTION ASSAY - IC50): 2.32 µM |
